Test [1] addresses T1, mutant p53 protein in H596 (G245C) non-small-cell lung cancer cells (Homo sapiens, UniProt P04637, G245C).
T1 construct: host or cells: H596
Kind of test: Immunoblot of mutant p53 protein in H596 cells. Type of test: cell-based. From the text: Human H596, A549, HCT116, MDA-MB-231, MDA-MB-468, MCF-7, DU145, MCF-10A, SW480, and SCC-4 cells were obtained from ATCC (Manassas, Va.). H1299-175H cells were kindly provided by Dr. Maria Laura Avantaggiati (Georgetown University). Cells were maintained in DMEM or RPMI-1640 medium supplemented with 10% FBS (Hyclone). […] 2,2-Diphenylethyl ITC, 4-phenoxybenzyl ITC, 4-methoxybenzyl ITC, 4-chlorobenzyl ITC, Dα-methylbenzyl ITC, trityl ITC, and 3-phenylpropyl ITC were purchased from Trans World Chemicals (Rockville, Md.). Erucin and 4-phenylbutyl ITC were from LKT Laboratories, Inc. (St. Paul, Minn.). […] The p53 DO-1 and β-actin antibodies were purchased from Santa Cruz Biotechnology (Santa Cruz, Calif.), horseradish peroxidase-labeled goat antimouse secondary antibodies were purchased from GE-Healthcare (Pittsburgh, Pa.), and Bio-Rad Protein Assay was from Bio-Rad (Hercules, Calif.).
Whole cell lysates were prepared in lysis buffer (20 mM HEPES, pH 7.4, 2 mM EGTA, 50 mM β-glycerol phosphate, 1% Triton X-100, 10% glycerol, 1 mM DTT, 1 mM PMSF, […], 1 mM Na3-VO4, and 5 mM NaF). For immunoblot analysis, equal amounts of protein were resolved on 4-12% NuPAGE BisTris gels (Invitrogen) and transferred to PVDF membranes (Millipore). The membranes were blocked with 5% milk in TBST and were then probed with p53 (DO-1) or β-actin antibody. Proteins were detected using enhanced chemiluminescence (ECL) reagents (GE Healthcare).

The next test concerns the target T2, p53 in H1299-143A cells (Homo sapiens, UniProt P04637, V143A).
T2 construct: expressed in transfected cells; host or cells: H1299-143A
Kind of test: PEITC-induced p53 depletion in H1299-143A cells, mutant vs wild-type conformation. The conditions noted are these: 20 μM PEITC, 24 h. The test is classed as cell-based. As for the experimental part:
FIG. 2 depicts PEITC depleting p53 protein in human cancer cells with different p53 mutation but not in cells with wild-type p53. (A) Cell lines harboring mutant p53 were treated with 15 μM PEITC (MDA-MB-231, MDA-MB-468, and SCC-4) or 10 μM PEITC (DU145 and SW480) for the indicated times. (B) Cells with wild-type p53 were treated with 20 μM PEITC (HCT116, A549, and MCF-7) or 15 μM PEITC (MCF-10A) for the indicated times. […] H1299-175H cells are used as control. Both cells were treated with 20 μM PEITC for 24 h.

Test [2] relates to A549, H596, MCF-7, MDA-MB-231, MDA-MB-468, HCT116 and SW480 cells. Description: Caspase-3 colorimetric activity assay (apoptosis), mutant vs wild-type p53 cells. Type of test: cell-based, Human. As to conditions: PEITC 24 h; lung, breast and colon cell line sets. As for the experimental part: Caspase-3 activity was measured by detection of the cleavage of a colorimetric caspase-3 substrate, N-acetyl-Asp-Glu-Val-Asp (DEVD)-p-nitroaniline, using an assay kit (R&D Systems, Inc., Minneapolis, Minn.). The assay was performed according to the instructions of the manufacturer. In brief, cells were treated with drugs for 24 h. The cells were collected and lysed in ice-cold lysis buffer provided by the manufacturer. The same amount of protein extracts (100-200 μg) were incubated in a reaction buffer containing N-acetyl-DEVD-p-nitroaniline at 37 gC for 2-4 h. The levels of the resulting proteolytic fragment p-nitroanilide were measured as optical density at 405 nm with a plate reader. The data represent the mean±SD of three independent experiments.
The role of p53 in the induction of apoptosis by ITCs is not well established and likely to be cell-specific. […] To examine this possibility, we assessed the cytotoxicity induced by PEITC in cancer cells containing either wild-type or mutant p53. Three sets of cell lines from lung, breast, and colon were used: A549 (wild-type p53) and H596 (mutant p53) lung cancer cells, MCF-7 (wild-type p53) and MDA-MB-231 and MDA-MB-468 (mutant p53) breast cancer cells, and HCT116 (wild-type p53) and SW480 (mutant p53) colon cancer cells. After treating with PEITC for 24 h, apoptosis was determined by caspase-3 activity assay.

The test system of test [3] is DU145 (mutant p53) xenograft tumors. Description: Xenograft model, DU145 tumors, PEITC diet. Type of test: in vivo, BALB/C nu/nu transgenic mice. As to the method: Briefly, 30 BALB/C nu/nu transgenic mice (purchased from Charles River) were randomized into two groups, and fed with powder diet AlN93 (purchased from Research Diets, Inc.) with or without addition of 5 μM PEITC compound (purchased from Sigma-Aldrich). After two weeks of feeding, two xenograft tumors each carrying […] in a volume of 100 μL were established by injection into both flanks of a mouse. Mice were continuously fed with diets with or without PEITC for additional 8 weeks before sacrifice. Diet intake and tumor volume were measured twice every week. Tumors were harvested at the end of bioassay for immunohistochemistry and immunoblot studies. […] Immunohistochemistry assays were carried out to examine the apoptotic markers, such as TUNEL, and anti-proliferation marker Ki67 in tumors from the PEITC-treated vs. untreated mice. This study provides the first in vivo evidence that mutant p53 can be depleted in tumors of mice fed PEITC-containing diet and its depletion seems to correlate with growth inhibition in the mutant p53 tumors.

For the compound `S=C=NCCc1ccccc1` [PEITC, phenethyl isothiocyanate], the “mutant p53 protein level” value in test [1] (H596 (G245C), 15 μM PEITC, immunoblot) was “rapid depletion”. Further, the “earliest time at which depletion of mutant p53 occurred” value in test [1] (H596, 15 μM PEITC) is recorded as 2 h. In test [1] (H596, 15 μM PEITC, sustained during 24 h treatment), the “time at which depletion of mutant p53 peaked” value is recorded as 4 h. Further, in test [1] (H596, 20 μM ITCs, 24 h, compared with DMSO control), the “depletion of mutant p53 at equimolar concentrations” value is on record as “approximately the same extent”. Besides, the “sensitivity to PEITC-induced p53 depletion, mutant conformation (37° C.) vs wild-type conformation (32.5° C.)” value on p53 in H1299-143A cells is recorded as “more sensitive”. Also, in test [2], the “sensitivity of mutant p53 cancer cells vs wild-type cells to PEITC-induced apoptosis (caspase-3 activity)” value is given as “significantly more sensitive”. In test [3] (DU145 tumors, PEITC diet), the “p53 level in tumors detected by immunoblot” value is recorded as “moderate, yet significant, decrease”. Moreover, the tumor volume result in test [3] (DU145 xenograft, diet with 5 μM PEITC vs diet without PEITC, 8 weeks) is “significantly decreased”.

Source of the values: patent US20130158111A1, “Compositions and Methods for Depleting Mutant p53” (Georgetown University, priority 2011, published 2013).
